Experimental data as given in PubChem BioAssay (NCI).
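96-well plates; 48 h exposure; 5 concentrations. Endpoints by linear interpolation between flanking doses. Not reached: highest tested concentration assigned. At the TGI there is no net growth.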

Tests used:
Assay in all cases: NCI-60 cell line screen, 48 h
A498 renal = system: A498 renal
MOLT-4 leukemia = system: MOLT-4 leukemia
KM12 colon = system: KM12 colon
CAKI-1 renal = system: CAKI-1 renal
M14 melanoma = system: M14 melanoma
SF-268 CNS = system: SF-268 CNS
SR leukemia = system: SR leukemia
UACC-257 melanoma = system: UACC-257 melanoma
HOP-92 NSCLC = system: HOP-92 NSCLC
SF-295 CNS = system: SF-295 CNS
HS 578T breast = system: HS 578T breast
MDA-MB-435 = system: MDA-MB-435
RXF 393 renal = system: RXF 393 renal
SK-MEL-2 melanoma = system: SK-MEL-2 melanoma
UACC-62 melanoma = system: UACC-62 melanoma
NCI-H522 lung = system: NCI-H522 lung
SN12C renal = system: SN12C renal
HOP-62 NSCLC = system: HOP-62 NSCLC
PC-3 prostate = system: PC-3 prostate
OVCAR-5 ovarian = system: OVCAR-5 ovarian
786-0 renal = system: 786-0 renal
OVCAR-8 ovarian = system: OVCAR-8 ovarian
EKVX NSCLC = system: EKVX NSCLC
SK-MEL-28 melanoma = system: SK-MEL-28 melanoma
HCT-15 colon = system: HCT-15 colon
CCRF-CEM leukemia = system: CCRF-CEM leukemia
HT29 colon = system: HT29 colon
NCI-H460 lung = system: NCI-H460 lung
A549 NSCLC = system: A549 NSCLC
K-562 leukemia = system: K-562 leukemia
HL-60(TB) leukemia = system: HL-60(TB) leukemia
NCI-H23 lung = system: NCI-H23 lung
HCC-2998 colon = system: HCC-2998 colon
MCF7 breast = system: MCF7 breast
MDA-N = system: MDA-N
OVCAR-3 ovarian = system: OVCAR-3 ovarian
TK-10 renal = system: TK-10 renal
SK-OV-3 ovarian = system: SK-OV-3 ovarian
BT-549 breast = system: BT-549 breast
DU-145 prostate = system: DU-145 prostate
IGROV1 ovarian = system: IGROV1 ovarian
SW-620 colon = system: SW-620 colon
SNB-19 CNS = system: SNB-19 CNS
U251 CNS = system: U251 CNS
UO-31 renal = system: UO-31 renal
MDA-MB-231 breast = system: MDA-MB-231 breast
HCT-116 colon = system: HCT-116 colon
SK-MEL-5 melanoma = system: SK-MEL-5 melanoma
ACHN renal = system: ACHN renal
T-47D breast = system: T-47D breast
NCI/ADR-RES ovarian = system: NCI/ADR-RES ovarian
SF-539 CNS = system: SF-539 CNS
NCI-H226 lung = system: NCI-H226 lung
OVCAR-4 ovarian = system: OVCAR-4 ovarian
COLO 205 colon = system: COLO 205 colon
LOX IMVI melanoma = system: LOX IMVI melanoma

Measured: TGI

CCN1C(NN)=NS(=O)(=O)c2ccccc21
> 100 µM: all assays above
